Data from ChEMBL document CHEMBL1152560, “Substituted 2-arylbenzothiazoles as kinase inhibitors: hit-to-lead optimization” (Bioorg Med Chem, 2009).

Legend:
[1] = target: T1, Ephrin type-B receptor 4 (Homo sapiens) (UniProt P54760); experiment: Residual activity of EPHB4 at 0.1 uM by microplate scintillation counting
T1 sequence (whole entry): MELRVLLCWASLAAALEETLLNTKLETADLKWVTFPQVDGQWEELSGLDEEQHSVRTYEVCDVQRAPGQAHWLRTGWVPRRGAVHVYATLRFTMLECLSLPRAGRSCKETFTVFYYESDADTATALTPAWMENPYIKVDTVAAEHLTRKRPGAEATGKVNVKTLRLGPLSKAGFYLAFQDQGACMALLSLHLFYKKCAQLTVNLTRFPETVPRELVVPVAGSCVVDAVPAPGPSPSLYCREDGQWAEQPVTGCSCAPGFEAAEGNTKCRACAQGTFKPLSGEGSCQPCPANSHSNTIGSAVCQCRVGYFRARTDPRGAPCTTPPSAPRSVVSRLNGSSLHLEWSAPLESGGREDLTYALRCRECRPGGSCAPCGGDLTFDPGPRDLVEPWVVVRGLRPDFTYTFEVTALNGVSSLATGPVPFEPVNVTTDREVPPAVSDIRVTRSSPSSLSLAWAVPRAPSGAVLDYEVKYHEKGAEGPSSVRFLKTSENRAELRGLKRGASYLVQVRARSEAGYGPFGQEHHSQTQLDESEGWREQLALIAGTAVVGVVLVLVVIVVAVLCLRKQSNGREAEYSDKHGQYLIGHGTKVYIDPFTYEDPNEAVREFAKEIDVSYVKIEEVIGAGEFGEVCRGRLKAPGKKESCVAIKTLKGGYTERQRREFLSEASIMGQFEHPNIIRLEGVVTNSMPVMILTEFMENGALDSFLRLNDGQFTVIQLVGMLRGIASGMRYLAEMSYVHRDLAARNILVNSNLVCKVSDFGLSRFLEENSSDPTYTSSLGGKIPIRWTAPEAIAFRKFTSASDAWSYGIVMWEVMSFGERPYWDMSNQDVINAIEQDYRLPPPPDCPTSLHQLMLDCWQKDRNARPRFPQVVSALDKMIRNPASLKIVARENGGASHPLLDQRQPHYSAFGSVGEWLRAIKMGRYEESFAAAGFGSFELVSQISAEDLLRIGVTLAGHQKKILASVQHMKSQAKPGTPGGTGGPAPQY

[2] = target: Casein kinase I isoform alpha (Homo sapiens) (UniProt P48729); experiment: Residual activity of CK1alpha1 at 0.1 uM by microplate scintillation counting
[3] = target: T2, Protein kinase C zeta type (Homo sapiens) (UniProt Q05513); experiment: Residual activity of PKCzeta at 1 uM by microplate scintillation counting
T2 sequence (whole entry): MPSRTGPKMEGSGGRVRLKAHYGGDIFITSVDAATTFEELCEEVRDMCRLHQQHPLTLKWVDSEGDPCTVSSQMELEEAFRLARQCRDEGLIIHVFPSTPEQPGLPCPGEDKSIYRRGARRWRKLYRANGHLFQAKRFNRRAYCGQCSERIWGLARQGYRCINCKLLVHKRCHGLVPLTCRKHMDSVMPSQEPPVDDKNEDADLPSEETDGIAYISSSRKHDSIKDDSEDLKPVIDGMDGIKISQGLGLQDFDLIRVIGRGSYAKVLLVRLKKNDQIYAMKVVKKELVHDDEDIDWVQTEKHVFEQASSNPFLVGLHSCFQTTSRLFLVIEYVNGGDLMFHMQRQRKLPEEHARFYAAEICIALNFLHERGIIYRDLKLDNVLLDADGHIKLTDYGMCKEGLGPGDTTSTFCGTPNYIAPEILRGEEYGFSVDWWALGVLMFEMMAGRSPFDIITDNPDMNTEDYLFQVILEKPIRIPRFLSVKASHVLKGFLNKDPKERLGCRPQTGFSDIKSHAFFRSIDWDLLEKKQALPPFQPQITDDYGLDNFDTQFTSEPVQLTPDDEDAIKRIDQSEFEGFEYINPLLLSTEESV

[4] = target: T3, Serine/threonine-protein kinase D1 (Homo sapiens) (UniProt Q15139); experiment: Residual activity of PKCmu at 10 uM by microplate scintillation counting
T3 sequence (whole entry): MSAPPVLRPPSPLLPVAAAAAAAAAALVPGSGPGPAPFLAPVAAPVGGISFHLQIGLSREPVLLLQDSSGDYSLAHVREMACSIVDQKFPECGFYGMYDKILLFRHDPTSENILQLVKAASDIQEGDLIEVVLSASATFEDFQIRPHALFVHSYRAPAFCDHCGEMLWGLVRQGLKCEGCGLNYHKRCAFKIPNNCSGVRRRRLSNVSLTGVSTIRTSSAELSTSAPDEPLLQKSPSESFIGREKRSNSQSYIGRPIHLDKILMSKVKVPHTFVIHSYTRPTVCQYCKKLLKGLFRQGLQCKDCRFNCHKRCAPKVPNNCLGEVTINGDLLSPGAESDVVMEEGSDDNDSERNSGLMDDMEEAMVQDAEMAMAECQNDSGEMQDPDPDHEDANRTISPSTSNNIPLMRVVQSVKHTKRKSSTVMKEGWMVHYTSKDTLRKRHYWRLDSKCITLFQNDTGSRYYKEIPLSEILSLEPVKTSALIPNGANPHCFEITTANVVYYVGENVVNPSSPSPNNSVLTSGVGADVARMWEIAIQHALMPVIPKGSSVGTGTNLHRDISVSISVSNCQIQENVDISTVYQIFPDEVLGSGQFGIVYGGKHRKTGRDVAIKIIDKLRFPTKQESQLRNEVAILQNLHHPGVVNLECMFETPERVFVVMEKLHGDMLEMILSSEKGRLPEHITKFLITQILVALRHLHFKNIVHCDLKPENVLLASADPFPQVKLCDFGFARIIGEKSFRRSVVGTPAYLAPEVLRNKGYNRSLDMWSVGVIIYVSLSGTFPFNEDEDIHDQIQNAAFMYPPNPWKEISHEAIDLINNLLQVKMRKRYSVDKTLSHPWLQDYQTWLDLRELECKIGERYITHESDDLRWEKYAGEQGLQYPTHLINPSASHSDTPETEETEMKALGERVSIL

[5] = target: Ribosomal protein S6 kinase alpha-1 (Homo sapiens) (UniProt Q15418); experiment: Residual activity of RPS6KA1 at 1 uM by microplate scintillation counting
[6] = target: Activin receptor type-1-like (Homo sapiens) (UniProt P37023); experiment: Residual activity of ACV-RL1 at 0.1 uM by microplate scintillation counting
[7] = target: Tyrosine-protein kinase Fgr (Homo sapiens) (UniProt P09769); experiment: Residual activity of FGR at 1 uM by microplate scintillation counting
[8] = target: Serine/threonine-protein kinase Chk2 (Homo sapiens) (UniProt O96017); experiment: Residual activity of CHK2 at 10 uM by microplate scintillation counting
[9] = target: CDK1/Cyclin E (Homo sapiens) (UniProt P06493+P24864); experiment: Residual activity of CDK1/Cyclin E at 10 uM by microplate scintillation counting; format: protein-complex assay
[10] = target: Macrophage-stimulating protein receptor (Homo sapiens) (UniProt Q04912); experiment: Residual activity of RON at 1 uM by microplate scintillation counting
[11] = target: Tyrosine-protein kinase Fgr (Homo sapiens) (UniProt P09769); experiment: Residual activity of FGR at 0.1 uM by microplate scintillation counting

Sequence of CDK1/Cyclin E (Homo sapiens) (P06493 whole entry, looked up): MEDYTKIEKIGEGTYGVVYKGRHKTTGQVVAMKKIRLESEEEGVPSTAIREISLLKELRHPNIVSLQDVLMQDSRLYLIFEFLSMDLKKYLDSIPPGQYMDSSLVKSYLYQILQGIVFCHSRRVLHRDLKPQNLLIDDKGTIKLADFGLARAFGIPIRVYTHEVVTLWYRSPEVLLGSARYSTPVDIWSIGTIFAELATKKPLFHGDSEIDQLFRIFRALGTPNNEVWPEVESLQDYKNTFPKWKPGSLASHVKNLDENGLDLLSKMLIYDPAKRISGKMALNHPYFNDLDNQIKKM
Sequence of CDK1/Cyclin E (Homo sapiens) (P24864 whole entry, looked up): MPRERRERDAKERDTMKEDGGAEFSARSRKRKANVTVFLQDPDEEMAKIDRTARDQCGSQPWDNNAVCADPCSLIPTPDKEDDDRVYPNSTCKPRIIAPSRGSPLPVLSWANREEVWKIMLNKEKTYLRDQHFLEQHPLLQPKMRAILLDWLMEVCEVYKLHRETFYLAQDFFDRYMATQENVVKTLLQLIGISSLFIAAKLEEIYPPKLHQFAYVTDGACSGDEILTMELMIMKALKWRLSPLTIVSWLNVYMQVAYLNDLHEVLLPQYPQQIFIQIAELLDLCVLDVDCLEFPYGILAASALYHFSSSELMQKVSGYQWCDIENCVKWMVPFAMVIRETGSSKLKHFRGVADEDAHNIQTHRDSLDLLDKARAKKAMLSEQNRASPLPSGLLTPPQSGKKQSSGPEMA
Sequence of Activin receptor type-1-like (Homo sapiens) (P37023 whole entry): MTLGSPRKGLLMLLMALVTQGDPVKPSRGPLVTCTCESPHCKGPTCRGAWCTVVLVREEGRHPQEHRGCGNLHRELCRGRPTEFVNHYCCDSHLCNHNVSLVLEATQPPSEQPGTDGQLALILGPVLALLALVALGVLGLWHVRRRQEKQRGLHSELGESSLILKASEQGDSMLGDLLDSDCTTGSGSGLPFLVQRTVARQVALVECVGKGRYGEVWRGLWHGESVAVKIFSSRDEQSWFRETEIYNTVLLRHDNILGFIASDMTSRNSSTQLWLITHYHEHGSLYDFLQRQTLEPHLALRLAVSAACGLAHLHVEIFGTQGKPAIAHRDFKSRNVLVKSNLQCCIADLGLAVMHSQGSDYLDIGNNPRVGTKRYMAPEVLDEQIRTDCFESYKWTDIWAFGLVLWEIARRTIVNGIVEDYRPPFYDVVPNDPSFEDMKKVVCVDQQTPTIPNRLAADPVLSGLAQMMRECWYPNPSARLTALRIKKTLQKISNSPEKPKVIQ
Sequence of Ribosomal protein S6 kinase alpha-1 (Homo sapiens) (Q15418 whole entry): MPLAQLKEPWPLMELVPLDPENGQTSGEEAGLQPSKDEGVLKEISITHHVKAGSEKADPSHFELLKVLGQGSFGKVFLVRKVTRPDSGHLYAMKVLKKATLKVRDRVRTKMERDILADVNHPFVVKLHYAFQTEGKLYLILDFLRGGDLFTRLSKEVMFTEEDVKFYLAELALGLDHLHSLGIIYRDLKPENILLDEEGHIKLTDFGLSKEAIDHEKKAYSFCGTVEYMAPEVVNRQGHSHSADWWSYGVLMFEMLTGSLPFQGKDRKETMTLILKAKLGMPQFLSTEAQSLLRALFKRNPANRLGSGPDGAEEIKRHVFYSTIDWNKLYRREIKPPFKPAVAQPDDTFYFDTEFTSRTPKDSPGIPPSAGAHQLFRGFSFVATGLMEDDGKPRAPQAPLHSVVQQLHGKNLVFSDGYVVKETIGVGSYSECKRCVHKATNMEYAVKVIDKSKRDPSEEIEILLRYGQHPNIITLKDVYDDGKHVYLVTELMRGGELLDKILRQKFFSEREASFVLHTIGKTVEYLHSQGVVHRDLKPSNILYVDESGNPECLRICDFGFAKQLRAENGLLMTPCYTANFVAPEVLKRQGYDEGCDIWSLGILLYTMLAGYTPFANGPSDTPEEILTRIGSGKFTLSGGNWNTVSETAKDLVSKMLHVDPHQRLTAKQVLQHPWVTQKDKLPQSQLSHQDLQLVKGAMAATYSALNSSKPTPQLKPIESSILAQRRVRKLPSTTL
Sequence of Tyrosine-protein kinase Fgr (Homo sapiens) (P09769 2-529 limits assumed): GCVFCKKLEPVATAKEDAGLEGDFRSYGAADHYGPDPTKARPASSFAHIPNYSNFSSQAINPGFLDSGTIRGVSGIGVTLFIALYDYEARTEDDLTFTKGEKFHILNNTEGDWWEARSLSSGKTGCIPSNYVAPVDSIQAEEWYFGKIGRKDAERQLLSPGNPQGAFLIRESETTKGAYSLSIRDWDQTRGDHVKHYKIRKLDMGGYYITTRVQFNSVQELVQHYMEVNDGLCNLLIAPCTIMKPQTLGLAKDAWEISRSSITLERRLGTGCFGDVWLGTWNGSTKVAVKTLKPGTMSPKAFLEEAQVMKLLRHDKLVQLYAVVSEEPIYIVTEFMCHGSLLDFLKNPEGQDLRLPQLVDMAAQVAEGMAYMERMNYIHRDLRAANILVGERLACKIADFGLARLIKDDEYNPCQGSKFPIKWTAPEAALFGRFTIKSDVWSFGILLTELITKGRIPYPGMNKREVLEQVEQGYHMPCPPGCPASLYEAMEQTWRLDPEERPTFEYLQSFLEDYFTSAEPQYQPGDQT
Sequence of Serine/threonine-protein kinase Chk2 (Homo sapiens) (O96017 whole entry): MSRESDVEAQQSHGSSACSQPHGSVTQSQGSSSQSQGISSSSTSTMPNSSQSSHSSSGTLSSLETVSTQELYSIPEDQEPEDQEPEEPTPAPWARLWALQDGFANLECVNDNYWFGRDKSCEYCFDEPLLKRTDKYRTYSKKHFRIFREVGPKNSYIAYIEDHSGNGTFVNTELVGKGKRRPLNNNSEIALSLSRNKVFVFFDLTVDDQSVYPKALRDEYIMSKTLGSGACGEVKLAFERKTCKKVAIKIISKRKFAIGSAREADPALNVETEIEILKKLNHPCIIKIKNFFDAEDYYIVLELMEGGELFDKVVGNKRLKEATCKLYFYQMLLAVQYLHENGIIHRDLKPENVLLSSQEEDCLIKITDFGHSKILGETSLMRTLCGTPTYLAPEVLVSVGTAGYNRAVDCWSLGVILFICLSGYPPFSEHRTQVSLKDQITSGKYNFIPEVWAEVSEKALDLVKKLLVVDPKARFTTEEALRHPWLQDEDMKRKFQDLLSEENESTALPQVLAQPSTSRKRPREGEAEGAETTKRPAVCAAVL
Sequence of Macrophage-stimulating protein receptor (Homo sapiens) (Q04912 25-304 limits assumed): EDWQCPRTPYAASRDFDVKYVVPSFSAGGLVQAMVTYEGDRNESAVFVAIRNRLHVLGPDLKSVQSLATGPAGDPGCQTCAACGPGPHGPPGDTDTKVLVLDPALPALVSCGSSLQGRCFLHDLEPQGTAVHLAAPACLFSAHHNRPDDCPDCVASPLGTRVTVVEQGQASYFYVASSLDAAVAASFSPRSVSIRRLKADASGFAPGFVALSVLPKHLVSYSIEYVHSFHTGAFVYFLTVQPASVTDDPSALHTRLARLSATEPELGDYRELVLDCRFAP
Sequence of Macrophage-stimulating protein receptor (Homo sapiens) (Q04912 310-1400 limits assumed): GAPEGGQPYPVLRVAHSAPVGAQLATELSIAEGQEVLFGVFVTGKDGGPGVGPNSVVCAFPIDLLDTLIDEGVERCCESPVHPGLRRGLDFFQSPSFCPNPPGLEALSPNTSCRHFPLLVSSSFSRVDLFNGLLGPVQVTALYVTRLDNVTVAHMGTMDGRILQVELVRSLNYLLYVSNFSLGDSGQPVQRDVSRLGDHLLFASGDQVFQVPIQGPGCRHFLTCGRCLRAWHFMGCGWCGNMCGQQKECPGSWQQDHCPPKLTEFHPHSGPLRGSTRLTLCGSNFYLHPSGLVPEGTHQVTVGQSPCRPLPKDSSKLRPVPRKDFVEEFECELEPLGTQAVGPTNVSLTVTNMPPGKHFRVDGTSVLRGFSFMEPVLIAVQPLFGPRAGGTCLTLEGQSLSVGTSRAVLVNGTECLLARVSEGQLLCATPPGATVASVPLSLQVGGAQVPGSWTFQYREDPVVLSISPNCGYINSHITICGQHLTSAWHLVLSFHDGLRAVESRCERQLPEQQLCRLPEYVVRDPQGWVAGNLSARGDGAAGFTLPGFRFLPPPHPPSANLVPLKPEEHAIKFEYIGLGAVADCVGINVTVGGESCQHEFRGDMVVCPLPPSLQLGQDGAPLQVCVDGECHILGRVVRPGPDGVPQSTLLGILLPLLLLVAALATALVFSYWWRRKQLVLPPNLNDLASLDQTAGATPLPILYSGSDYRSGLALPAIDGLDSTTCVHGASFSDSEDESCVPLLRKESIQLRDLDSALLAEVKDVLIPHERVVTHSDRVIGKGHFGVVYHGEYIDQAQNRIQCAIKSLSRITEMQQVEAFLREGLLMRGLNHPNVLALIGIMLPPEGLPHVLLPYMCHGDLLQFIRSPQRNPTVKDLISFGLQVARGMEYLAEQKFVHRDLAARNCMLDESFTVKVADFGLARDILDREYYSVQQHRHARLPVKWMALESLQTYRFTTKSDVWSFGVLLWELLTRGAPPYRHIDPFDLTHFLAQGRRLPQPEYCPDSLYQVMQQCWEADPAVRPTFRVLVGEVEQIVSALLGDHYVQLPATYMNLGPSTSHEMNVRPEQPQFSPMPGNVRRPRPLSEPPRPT
Sequence of Casein kinase I isoform alpha (Homo sapiens) (P48729 2-337 limits assumed): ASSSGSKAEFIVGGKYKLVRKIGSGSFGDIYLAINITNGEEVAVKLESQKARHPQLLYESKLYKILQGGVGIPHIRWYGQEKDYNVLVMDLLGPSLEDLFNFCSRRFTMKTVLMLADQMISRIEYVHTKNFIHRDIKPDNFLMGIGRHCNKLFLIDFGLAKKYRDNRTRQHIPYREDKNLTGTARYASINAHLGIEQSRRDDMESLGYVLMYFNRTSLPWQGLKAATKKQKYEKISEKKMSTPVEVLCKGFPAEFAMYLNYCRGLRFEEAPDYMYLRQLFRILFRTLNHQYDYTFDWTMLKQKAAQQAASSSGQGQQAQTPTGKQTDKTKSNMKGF

SMILES	residual activity [1] [%]	residual activity [2] [%]	residual activity [3] [%]	residual activity [4] [%]	residual activity [5] [%]	residual activity [6] [%]	residual activity [7] [%]	residual activity [8] [%]	residual activity [9] [%]	residual activity [10] [%]	residual activity [11] [%]
COc1cc2c(Oc3ccc(-c4nc5ccccc5s4)cc3)ncnc2cc1OCCCN1CCN(C)CC1	108	101	92	122	78	91	101	11	108	48	103
COc1cc2c(Oc3ccc(-c4nc5ccccc5s4)cc3)ncnc2cc1OCCCN1CCCC1	98	102	109	126	74	96	94	17	93	60	96
COc1cc2c(Oc3ccc(-c4nc5ccccc5s4)cc3F)ncnc2cc1OCCCN1CCN(C)CC1	98	93	107	111	88	92	91	9	107	35	103
